Converted amounts (≈) assume the structure as drawn.
What was measured:
[1] = test system: Gram-positive and Gram-negative bacteria; assay: Antibacterial activity against clinically isolated strains (overall conclusion); type: cell-based; conditions: against both Gram-positive and Gram-negative bacteria
Description: (§1) Test strains: the following clinically isolated strains were provided by public organizations.
Gram-positive bacteria: methicillin sensitive Staphylococcus aureus (MSSA), and penicillin sensitive Streptococcus pneumoniae;
(§2) Gram-negative bacteria: ESBLs negative Escherichia coli, ESBLs positive Escherichia coli, Haemophilus influenzae, and Moraxelle catarrhalis.
(§3) Test compound: the crystalline form I of compound A
(§4) Experimental method: standard agar double dilution method was adopted.

[2] = Stability assay at a high temperature of 60° C. (HPLC content and related substances); type: physicochemical
Protocol: Condition for the assay: sampled after placing for 5 days, 10 days at a high temperature of 60° C., and the results thus obtained were compared with those obtained at day 0 by measuring related substances and contents thereof. The samples were sealed with plastic bags coated with aluminium foils during the assay. Amorphous compound A (refers to the amorphous for short hereinafter): self-prepared. Preparation method: see the preparation of amorphous compound A in the above preparative examples. The purity is 96.66%, and the batch number is 110901. The crystalline form I of compound A (refers to the crystalline form I for short hereinafter): prepared by example 1 of the Specification. The batch number is 20100315-4. Content determination is performed by external standard method using the sample at day 0 as control according to the high performance liquid chromatography in Chinese Pharmacopoeia, 2010 edition, appendix VD. Determination of related substances is performed by area normalization method according to the high performance liquid chromatography in Chinese Pharmacopoeia, 2010 edition, appendix VD. Mobile phase: A: 0.02 M diammonium phosphate (pH=5.2 adjusted by phosphoric acid):acetonitrile=95:5. • B: 0.02 M diammonium phosphate (pH=5.2 adjusted by phosphoric acid):acetonitrile=30:70. Gradient condition: see Table 1 The experimental results obtained: see Table 2

Moraxelle catarrhalis = assay: Antibacterial activity, standard agar double dilution method; type: cell-based; conditions: clinically isolated strains
Description: as §1, §2, §3, §4

[3] = 60° C., day 5 compared with day 0
[4] = 60° C., day 10 compared with day 0

Row | SMILES | Antibacterial activity [1] | Stability as compared with the amorphous of compound A ([2]; 60° C., 5 and 10 days) | Content decrease % [2, 3] [%] | Related substance % increase open ring % [2, 3] [%] | Related substance % increase total % [2, 3] [%] | Content decrease % [2, 4] [%] | Related substance % increase open ring % [2, 4] [%] | Related substance % increase total % [2, 4] [%] | MIC90 (Moraxelle catarrhalis) [ng/mL] | Content % ([2]; 60° C., day 5, sample at day 0 as control) [%] | Related substance % open ring % ([2]; 60° C., day 5, sealed) [%] | Related substance % total % ([2]; 60° C., day 5, sealed) [%] | Related substance % open ring % ([2]; day 0) [%] | Related substance % total % ([2]; day 0) [%]
1 | C[C@@H](O)[C@H]1C(=O)N2C(C(=O)O)=C(S[C@@H]3CN[C@H](C(=O)NCc4ccc(S(N)(=O)=O)cc4)C3)[C@H](C)[C@H]12 [The crystalline form I] | excellent antibacterial activity | more stable | 3.73 | 0.646 | 0.841 | 3.95 | 0.984 | 1.167 | 8 (≈ 0.0152 µM) | – | – | – | – | –
2 | C[C@@H](O)[C@H]1C(=O)N2C(C(=O)O)=C(S[C@@H]3CN[C@H](C(=O)NCc4ccc(S(N)(=O)=O)cc4)C3)[C@H](C)[C@H]12 [The amorphous] | – | – | 26.84 | 2.852 | 11.38 | – | – | – | – | 73.16 | 3.328 | 20.675 | 0.476 | 9.295
